Laboratory results as given in ChEMBL document CHEMBL1154254, “Antiproliferative triterpenoid saponins of Dodonaea viscosa from the Madagascar dry forest” (J Nat Prod, 2009).

Experiments:
Assay type in all cases: functional, cell-based
NCI-H460 = experiment: Antiproliferative activity against human NCI-H460 cells
BT-549 = experiment: Antiproliferative activity against human BT549 cells
A2780 = experiment: Antiproliferative activity against human A2780 cells after 2 days by alamar blue assay; settings: A2780, 48 h
HCC 2998 = experiment: Antiproliferative activity against human HCC2998 cells
DU-145 = experiment: Antiproliferative activity against human DU145 cells

| SMILES | IC50 (NCI-H460) [µM] | IC50 (BT-549) [µM] | IC50 (A2780) [µM] | IC50 (HCC 2998) [µM] | IC50 (DU-145) [µM] |
| --- | --- | --- | --- | --- | --- |
| C/C=C(/C)C(=O)O[C@H]1[C@H](OC(=O)/C(C)=C\C)[C@]2(CO)[C@H](O)[C@H](O)[C@]3(C)C(=CC[C@@H]4[C@@]5(C)CC[C@H](O[C@@H]6O[C@H](C(=O)O)[C@@H](O)[C@H](O[C@@H]7O[C@@H](CO)[C@H](O)[C@H]7O)[C@H]6O[C@@H]6O[C@H](CO)[C@@H](O)[C@H](O)[C@H]6O)C(C)(C)[C@@H]5CC[C@]43C)[C@@H]2CC1(C)C [DODONAEASIDE A] | > 5 | > 5 | 0.79 | > 5 | > 5 |
| C/C=C(/C)C(=O)O[C@H]1[C@H](OC(=O)[C@]2(C)O[C@@H]2C)C(C)(C)C[C@H]2C3=CC[C@@H]4[C@@]5(C)CC[C@H](O[C@@H]6O[C@H](C(=O)O)[C@@H](O)[C@H](O[C@@H]7O[C@@H](CO)[C@H](O)[C@H]7O)[C@H]6O[C@@H]6O[C@H](CO)[C@@H](O)[C@H](O)[C@H]6O)C(C)(C)[C@@H]5CC[C@@]4(C)[C@]3(C)C[C@@H](O)[C@]21CO [DODONAEASIDE B] | – | – | 0.7 | – | – |
